Reference: PubChem BioAssay AID1963425 (Molecular Pharmacology Branch, DTP, NCI, 2024)

Tested on: 323965-272-R-J2-PDC complex spheroid growth, % test/control
Experiment: Anticancer human tumor 323965-272-R-J2-PDC patient-derived pancreatic carcinoma cell line growth inhibition [Asc]
Settings: for IC50: curve of first compound; for viability, T/C: stronger effect = lower value
Procedure, shortened: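 Tumor cells were grown as multicellular spheroids with stromal HUVEC and mesenchymal stem cells and treated singly or in combination. Concentrations fell in half-log steps from the clinical Cmax, or from 10 microM where none was known.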
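Note: compound exposure lasted 7 days starting three days after spheroid seeding.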
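Throughout, for viability, T/C: 100% = DMSO vehicle control wells with viability set relative to vehicle.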

## CCN1C(C(=O)NC23CCC(C(=O)O)(CC2)CC3)C(c2cccc(Cl)c2F)C2(C(=O)Nc3cc(Cl)ccc32)C12CCCCC2 (configuration not stated) + Cc1c(S(C)(=O)=O)c(-c2cc(F)cc(N3CCN(c4ccc(NS(=O)(=O)c5ccc(NC(CCN6CCC(C(=O)OCCCP(=O)(O)O)CC6)CSc6ccccc6)c(S(=O)(=O)C(F)(F)F)c5)cc4)CC3)c2)c(-c2ccc(Cl)cc2)n1C(C)C
Second compound 0.0316 µM
  IC50: > 3 µM
Second compound 0.1 µM
  IC50: > 3 µM
Second compound 0.316 µM
  IC50: > 3 µM
Second compound 1 µM
  IC50: > 3 µM
Second compound 3.16 µM
  IC50: 1.87 µM
Second compound 10 µM
  IC50: 1.18 µM
Second compound 0.0316 µM, first compound 0.00949 µM
  viability, T/C: 117%
Second compound 0.0316 µM, first compound 0.03 µM
  viability, T/C: 103%
Second compound 0.0316 µM, first compound 0.0949 µM
  viability, T/C: 88.5%
Second compound 0.0316 µM, first compound 0.3 µM
  viability, T/C: 101%
Second compound 0.0316 µM, first compound 0.949 µM
  viability, T/C: 98.8%
Second compound 0.0316 µM, first compound 3 µM
  viability, T/C: 93.8%
Second compound 0.1 µM, first compound 0.00949 µM
  viability, T/C: 110%
Second compound 0.1 µM, first compound 0.03 µM
  viability, T/C: 94.2%
Second compound 0.1 µM, first compound 0.0949 µM
  viability, T/C: 104%
Second compound 0.1 µM, first compound 0.3 µM
  viability, T/C: 101%
Second compound 0.1 µM, first compound 0.949 µM
  viability, T/C: 88.4%
Second compound 0.1 µM, first compound 3 µM
  viability, T/C: 81.8%
Second compound 0.316 µM, first compound 0.00949 µM
  viability, T/C: 89.4%
Second compound 0.316 µM, first compound 0.03 µM
  viability, T/C: 97.9%
Second compound 0.316 µM, first compound 0.0949 µM
  viability, T/C: 94.5%
Second compound 0.316 µM, first compound 0.3 µM
  viability, T/C: 87.1%
Second compound 0.316 µM, first compound 0.949 µM
  viability, T/C: 90%
Second compound 0.316 µM, first compound 3 µM
  viability, T/C: 65.3%
Second compound 1 µM, first compound 0.00949 µM
  viability, T/C: 95.3%
Second compound 1 µM, first compound 0.03 µM
  viability, T/C: 81.8%
Second compound 1 µM, first compound 0.0949 µM
  viability, T/C: 86.5%
Second compound 1 µM, first compound 0.3 µM
  viability, T/C: 80.3%
Second compound 1 µM, first compound 0.949 µM
  viability, T/C: 81.8%
Second compound 1 µM, first compound 3 µM
  viability, T/C: 54%
Second compound 3.16 µM, first compound 0.00949 µM
  viability, T/C: 70.6%
Second compound 3.16 µM, first compound 0.03 µM
  viability, T/C: 76.3%
Second compound 3.16 µM, first compound 0.0949 µM
  viability, T/C: 75.9%
Second compound 3.16 µM, first compound 0.3 µM
  viability, T/C: 69.4%
Second compound 3.16 µM, first compound 0.949 µM
  viability, T/C: 64.7%
Second compound 3.16 µM, first compound 3 µM
  viability, T/C: 40.1%
Second compound 10 µM, first compound 0.00949 µM
  viability, T/C: 71.7%
Second compound 10 µM, first compound 0.03 µM
  viability, T/C: 67%
Second compound 10 µM, first compound 0.0949 µM
  viability, T/C: 71.9%
Second compound 10 µM, first compound 0.3 µM
  viability, T/C: 62.1%
Second compound 10 µM, first compound 0.949 µM
  viability, T/C: 54.2%
Second compound 10 µM, first compound 3 µM
  viability, T/C: 34%
